From patent publication US20120149724A1, “MODULATING ENDOGENOUS BETA-ENDORPHIN LEVELS” (THE GENERAL HOSPITAL CORPORATION, priority 2009, published 2012)
Entries after “also recorded” stand apart in the source; their conditions may differ.

How the values were obtained:
Format in all cases: in vivo
[1] = tested on: tail-irradiated C57BL/6 mice; assay: Straub Tail scoring in tail-irradiated mice; conditions: 10 mg/kg ip after the 17th tail irradiation (5 Gy/day); rescored 20 minutes after injection
Description: To obtain the data shown in FIG. 3C, after the 17th irradiation dose, the mice were measured for Straub Tail scores and the irradiated mice were divided into two subgroups. The first subgroup was injected with 10 mg/kg naloxone ip. The second subgroup was injected with saline ip. Straub Tail scores were then rescored 20 minutes after the injection. FIG. 3C uses data obtained by Wild type female mice. […] The saline injection has no effect on the Straub Tail phenotype.
Mice undergoing tail radiation or mock treatment were assessed for Straub Tail according to a slightly modified method of Zarrindast, M. R., Ghadimi, M., Ramezani-Tehrani, B., and Sahebgharani, M. Effect of GABA Receptor Agonists or Antagonists on Morphine-induced Straub Tail in Mice. […] 2006; 116(8): 963-73, by which Straub tail is scored on a scale of 0-2 according to the angle of elevation of the tail from the horizontal plane (0=tail relaxed and no elevation; 1=tail is rigid and slightly elevation 1-10° from horizontal; 1.5=11-45 degree elevation with rigidity at the base of the tail; 2=46-90° elevation with rigidity at the base of the tail). For each measurement, each mouse is scored every 10 seconds for 1 minute, and the final score for each mouse at a given measurement point is the average of these 7 values. […] After the 17th irradiation, all mice were scored as described above immediately following tail radiation. […]

[2] = tested on: UV-exposed C57BL/6 mice; assay: pain thresholds (von Frey and hot plate) over daily low-dose UVB exposure; conditions: UVB 50 mJ/cm2/day, 5 days/week for 6 weeks, 10 mg/kg ip 15 minutes before testing
Description: To obtain the data shown in FIGS. 7A, 7B and 7C, eight-week-old male C57BL/6 mice were dorsally depilated and either exposed to 50 mJ/cm2/day or mock exposed 5 days/week for 6 weeks. Blood was drawn prior to, once weekly during, and once weekly for 2 weeks following the end of the regimen for β-endorphin measurement. In addition, pain thresholds in both the von Frey and hot plate assay were measured prior to, twice weekly during, and twice weekly for 2 weeks following the end of the regimen. One subgroup of UV-exposed mice and one subgroup of mock-treated mice were injected with naloxone (10 mg/kg, ip) and another subgroup of UV-exposed mice and mock-treated mice were injected with saline (ip) 15 minutes prior to each pain threshold testing. Pain threshold measurements were taken on 2 non-consecutive days and on a different day from the blood draws each week. […] Error bars indicate +/−SEM. […] Error bars indicate +/− standard deviation. […]
Eight-week-old male C57BL/6 mice were dorsally depilated and either exposed to 50 mJ/cm2/day or mock exposed 5 days/week for 6 weeks. […] In addition, pain thresholds in both the von Frey and hot plate assay were measured prior to, twice weekly during, and twice weekly for 2 weeks following the end of the regimen. […]

[3] = tested on: chronically UV-irradiated mice; assay: naloxone-induced somatic symptoms of opiate withdrawal after chronic UVB exposure; conditions: UVB 50 mJ/cm^2/day for 6 weeks, 2 mg/kg sc, counted over 25 minutes
Description: To obtain the data shown in FIG. 9, mice were either exposed to 50 mJ/cm^2/day UVB radiation, or mock-exposed 5 days per week for 6 weeks. These two groups of mice were divided into subgroups and either injected with a dose of 2 mg/kg naloxone(sc) or saline. […] The symptoms observed include wet dog shake, paw tremor, jumping, grooming, teeth chatter, rearing and diarrhea.
This example assesses physical dependence to opiate agents by evaluating withdrawal symptoms in mice upon acute administration of an opiate antagonist. In mice, symptoms of opiate withdrawal include shaking vigorously (called a “wet-dog shake”), paw tremors, teeth chattering, jumping, rearing, increased grooming, and diarrhea. The occurrence of these symptoms were measured in mice either exposed to 50 mJ/cm^2/day UVB radiation 5 days per week for 6 weeks or mock-exposed on the same schedule. One subgroup of each group of mice was injected with 2 mg/kg subcutaneous naloxone and number of occurrences of each of the above-mentioned symptoms was counted over 25 minutes immediately following naloxone injection. The other subgroup was administered a subcutaneous injection of saline before the 25-minute observation period.

C=CCN1CC[C@]23c4c5ccc(O)c4O[C@H]2C(=O)CC[C@@]3(O)[C@H]1C5 [naloxone]
effect on Straub Tail score [1]: abolished to near mock-treated levels; also recorded: reversed the Straub Tail, similar to mock-treated levels
effect on UV-induced changes in pain thresholds / opioid-mediated phenotypes [2]: naloxone-reversible; also recorded: reversed
jumping behavior [3]: only group to show any jumping behavior at all
occurrences of wet dog shakes, teeth chattering, paw tremoring, grooming and rearing ([3]; compared to all other groups): significantly more
